# Where “and” joins values, the source holds several entries; their conditions need not be identical. Identical values can stand only once. Entries after “also recorded” stand apart in the source; their conditions may differ.
# Key:
# [1] = test system: Ventricular embryonic chick cardiomyocytes; assay: Cell death (propidium iodide viability assay) after simulated ischemia/reperfusion; type: cell-based
# Protocol: Ventricular embryonic chick cardiomyocytes were prepared according to published procedure. […] Coverslips were checked for non-muscle cell contamination.
# (§1) Coverslips with contracting cells were placed in a 1.2 mL Sykes-Moore perfusion chamber (Bellco Glass Inc., Vineland, N.J.). The chamber and inflow tubing were maintained at 37° C. Perfusate was supplied to the chamber (0.25 ml/min) via stainless steel tubing to minimize diffusive entry of ambient O2.
# Cell viability was assessed with the fluorochrome propidium iodide (PI) (5 μM, Molecular Probes, Eugene, Oreg.). PI is excluded from viable cells, but enters cells and binds to chromatin after loss of cell membrane integrity. The cells then become highly fluorescent (excitation wavelength of 540 nm and a 590 nm band pass emission filter). PI was used to quantify cell death throughout the entire time of each experiment. […] All cells in the field studied were stained with PI at the end of the experiment by permeabilizing the cells with digitonin (300 μM). Percent cell death was then calculated as the PI fluorescence at any given time point relative to the maximal fluorescence value seen after digitonin exposure.
# (§2) For each experiment a field of about 500 cells was observed. Treatment and control groups were matched in sets containing cells isolated and cultured on the same day so as to eliminate variability due to cell batch. Additional 25 mm coverslips were used for replicate experiments (“n”). Results are reported as means plus or minus S.E.M. and two-tailed unpaired t-tests comparing similar time points throughout ischemia and reperfusion were used as tests of significance, with p<0.05 considered to be significant.
# [2] = test system: reactive oxygen species (ROS) in embryonic chick cardiomyocytes; assay: Intracellular ROS (DCF fluorescence) at reperfusion after simulated ischemia; type: cell-based; settings: for maximal DCF fluorescence intensity: control 2.8±0.2 a.u.
# Protocol: (§3) Ventricular embryonic chick cardiomyocytes were prepared according to published procedure. (Vanden Hoek T L, Becker L B, Shao Z, et al. Reactive oxygen species released from mitochondria during brief hypoxia induce preconditioning in cardiomyocytes, J. Biol. Chem. […]; 273:18092-18098, which is incorporated herein by reference). 10-day old chicken embryo hearts were removed, ventricular tissue minced into 0.5 mm fragments, enzymatically dispersed with 0.025% trypsin (Life Technologies, New York, N.Y.), centrifuged, 0.7×10^6 cells were pipetted onto 25 mm coverslips, and incubated with 5% CO2. Coverslips were checked for non-muscle cell contamination. Experiments were performed with 3-5 day cardiac cell cultures, by which time a synchronously contracting layer of cells could be visualized and viability exceeded 95%.
# as §1
# (§4) Normoxic perfusate used for baseline conditions and for reperfusion subsequent to ischemia contained oxygenated balanced salt solution (BSS) with a PO2 OF 149 torr, PCO2 of 40 torr, pH of 7.4, and [K]^+ of 4.0 mEq/L, and glucose (5.6 mM). To simulate ischemia, the perfusate contained BSS with 2-deoxyglucose (2-DOG) (20 mM) rather than glucose and [K]^+ of 8.0 mEq/L. The ischemic perfusate was equilibrated with 80% N2 and 20% CO2 prior to use to produce a PO2 of ˜5 torr, a PCO2 of 144 torr and a final pH of 6.8.
# Intracellular oxidant stress due to ROS was monitored real time with the intracellular probe 2′,7′-dichlorofluorescin diacetate (DCFH-DA, 5 μM, Molecular Probes, Eugene, Oreg.) as described in published literature (Vanden Hoek, F L, et al., Reactive oxygen species released from mitochondria during brief hypoxia induce preconditioning in cardiomyocytes, J. Biol. Chem. […]; 273:18092-18098, which is incorporated by reference herein; Vanden Hoek, T L, et al, Preconditioning in cardiomyocytes protects by attenuating oxidant stress at reperfusion, Circ Res 2000; 86:534-540, which is incorporated by reference herein; Vanden Hoek, T L, Reperfusion, not simulated ischemia initiates intrinsic apoptosis injury in chick cardiomyocytes Am J. Physiol Heart Physiol 2003; 284:H141-150, which is incorporated by reference herein). DCFH-DA is cleaved by cellular esterases upon entry into the cells, trapping the nonfluorescent 2′,7′-dichlorofluorescin (DCFH) inside. ROS, particularly hydrogen peroxide (H2O2) and hydroxyl radical generate the fluorescent product dichlorofluorescein (DCF) by causing the oxidation of DCFH. Increases in DCF fluorescence result from DCFH oxidation to DCF. DCF fluorescence was measured at an excitation wavelength of 480 nm, and a 520 nm band pass emission filter. Attention was focused on the maximal DCF fluorescence intensity value during the first minutes of reperfusion for comparison. All measurements were expressed in arbitrary units (a.u.) of fluorescence.
# as §2
# [3] = test system: Ventricular embryonic chick cardiomyocytes; assay: Return of synchronous cell contraction after simulated ischemia/reperfusion; type: cell-based; settings: for return of contractions (groups with return/total): no return in control cells
# Protocol: as §3, §4
# Contractions were assessed by monitoring synchronous movement within the same field of cells as previously reported. A return of contraction following simulated ischemia/reperfusion was indicated when contractions could be seen throughout the field of cells following the three hour period of reperfusion.
# [4] = test system: mitochondrial respiration; assay: Decrease of mitochondrial respiration; settings: dose administered to achieve protection
# [5] = test system: nitric oxide (NO) generation in embryonic chick cardiomyocytes; assay: NO generation (DAF-2 fluorescence) during ischemia/reperfusion; type: cell-based; settings: L-NAME 200 μM during I/R, n=8
# Protocol: as §3, with “al:” for “al.”, “0.25%” for “0.025%”, “95%. […]” for “95%.”
# Endogenous NO generation has been implicated to have both protective and detrimental roles in various in vitro and in vivo models of I/R injury. To test whether endogenous NO was affected by hypocarbic or hypercarbic reperfusion, we continuously monitored the entire course of I/R using the NO indicator DAF-2 DA of cells treated as described in Example 2.
# Cells were treated as described in Example 11, and the NO profile and cell viability was assessed in hypercarbic reperfusion compared with hypercarbic reperfusion with 200 μM L-NAME incubated during I/R as described above.
# [6] = test system: reactive oxygen species (ROS) in embryonic chick cardiomyocytes; assay: ROS (DCF fluorescence) during hypocarbic/normocarbic/hypercarbic reperfusion; type: cell-based; settings: apocynin 300 μM during reperfusion
# Protocol: as §3, with “al:” for “al.”, “0.25%” for “0.025%”
# To simulate ischemia, the perfusate contained BSS with 2-deoxyglucose (2-DOG) (20 mM) rather than glucose, 18 mM NaCO3 and [K]^+ of 8.0 mEq/L, and was equilibrated with 80% N2 and 20% CO2 to produce a final PO2 of 3-5 torr, PCO2 of 144 torr, and pH 6.8. In addition, 20 mM of glycolytic inhibition 2-deoxyglucose was added to better model adenosine triphosphate depletion.
# For perfusion, three perfusate solutions were used: normocarbic reperfusion perfusate, hypocarbic reperfusion perfusate and hypercarbic reperfusion perfusate. […]
# [7] = 20 μM NADH isomer at reperfusion
smiles,measurement,setting,value
C/C=C(C)/C=C/C=C/[C@H](OC)[C@@H](C)[C@@H](OC)[C@@H](C)CCc1oc2c(O)c(OC)cc(OC)c2c(=O)c1C [stigmatellin],cell death,"[1]; stigmatellin 20 nM, first 15 minutes of reperfusion, control 50.2±3.0%, n=3",20.3±5.0%
same,cell death,"[1]; stigmatellin 100 μM, 3 hours of reperfusion, control 50.2±3.0%, n=3",80.1±6.0%
same,cell death,"[1]; stigmatellin 100 μM, first 15 minutes of reperfusion, control 50.2±3.0%, n=3",52.3±3.0%
same,I/R cell death,"[1]; stigmatellin 2-20 nM, first 15 min of reperfusion, control 53.8±3.5%, n=5",10.8±2.9%
same,reperfusion ROS,"[2]; stigmatellin 100 μM, first 15 min of reperfusion",ROS was abrogated
same,maximal peak DCF fluorescence intensity,"[2]; stigmatellin 2-20 nM, first 15 min of reperfusion, control 2.4±0.3 a.u., n=5",0.46±0.02 a.u.
same,reperfusion ROS,[2]; stigmatellin given during the whole 3 hour course of reperfusion,ROS was attenuated
same,return of contractions (groups with return/total),"[3]; stigmatellin 2-20 nM, first 15 minutes of reperfusion",5/5
C=C(C)[C@H]1Cc2c(ccc3c2O[C@@H]2COc4cc(OC)c(OC)cc4[C@@H]2C3=O)O1 [rotenone],protection against I/R injury (cell protection),"[1]; all tested doses of rotenone, including nanomolar doses for first 15 minutes of reperfusion",no tested dose of rotenone conferred cell protection
same,cell death,"[1]; rotenone 100 nM, first 15 minutes of reperfusion, control 50.2±3.0%, n=3",61.3±1.6%
same,cell death,"[1]; rotenone 1 μM, first 15 minutes of reperfusion, control 50.2±3.0%, n=3",77.4±6.6% and 77.1±6.6%
same,cell death,"[1]; rotenone 10 μM, first 15 minutes of reperfusion, control 50.2±3.0%, n=3",66.1±3.4% and 66.2±3.4%
same,maximal peak DCF fluorescence intensity (reperfusion ROS),"[2]; rotenone 5 μM (representative of all doses), control 2.4±0.3 a.u., n=5",0.7±0.1 a.u.
NC(=O)C1=CN([C@@H]2O[C@H](COP(=O)(O)OP(=O)(O)OC[C@H]3O[C@@H](n4cnc5c(N)ncnc54)[C@H](O)[C@@H]3O)[C@@H](O)[C@H]2O)C=CC1 [β-NADH],I/R cell death versus control,"[1]; exogenous β-NADH 20 μM, first 10 minutes of reperfusion",showed no benefit
same,percent increase in ROS generation during reperfusion over ischemia,"[2]; exogenous β-NADH 20 μM, first 10 minutes of reperfusion, control 86.2±19.6%, n=8",511±123%
same,return of contractions (groups with return/total),[3]; [7],absence of contractile return
O=C(O)c1ccc2cc3ccccc3cc2c1 [2-anthracene-carboxylic acid],I/R induced cell death,"[1]; 0.1 μM, first 10 minutes of reperfusion, control 47.1±3.0%, n=5",26.1±4.0%
same,cell death,"[1]; 1 μM as printed in Example 4, first 10 minutes of reperfusion, control 47.1±3.0%, n=5",26.1±4.0%
same,maximal DCF fluorescence intensity,"[2]; 0.1 μM, first 10 minutes of reperfusion, n=3",1.7±0.1 a.u.
same,return of synchronous contractions (groups with return/total),"[3]; 0.1 μM, first 10 minutes of reperfusion, control 0/7",5/5
same,decrease of mitochondrial respiration,[4],10-15%
"CCN(CC)C(=S)S [DDC, diethyldithiocarbamic acid]",I/R induced cell death,"[1]; DDC 1 mM during reperfusion, control 49.7±6.7%, n=5",15.7±4.7%
same,maximal DCF fluorescence intensity,"[2]; DDC 1 mM during simulated ischemia and first 15-30 min of reperfusion, n=5",1.6±0.1 a.u.
NC(=O)C1=CN([C@H]2O[C@H](COP(=O)(O)OP(=O)(O)OC[C@H]3O[C@@H](n4cnc5c(N)ncnc54)[C@H](O)[C@@H]3O)[C@@H](O)[C@H]2O)C=CC1 [α-NADH],I/R cell death,"[1]; exogenous α-NADH 20 μM, control 47.1±3.0%, n=5",13.8±1.3%
same,effect on β-NADH induced increase in ROS,[2]; α-NADH 20 μM co-treated with β-NADH 20 μM,blocked this increase in ROS; also recorded: reversal of the increase was observed
same,return of contractions (groups with return/total),[3]; [7],5/5
"COC(=O)[C@@H](N)CCCNC(=N)N[N+](=O)[O-] [L-NAME, N^G-nitro-L-arginine methyl ester]",NO generation (DAF-2 fluorescence) during hypercarbic reperfusion,[5],blocked maintenance of the sustained NO levels; also recorded: reduction of the sustained increase of NO generation
COc1cc(C(C)=O)ccc1O [apocynin],ROS burst (DCF fluorescence) in hypocarbic reperfusion,[6]; hypocarbic,did not attenuate the reperfusion ROS burst; also recorded: increased the ROS burst
same,ROS burst (DCF fluorescence) in normocarbic reperfusion,[6]; normocarbic,did not attenuate the reperfusion ROS burst; also recorded: increased the ROS burst

# Reference: patent US20090110673A1, “METHODS OF REDUCING CELL DEATH FOLLOWING HYPOXIA / REOXYGENATION” (THE UNIVERSITY OF CHICAGO, priority 2006, published 2009)
